Laboratory results published in patent US20030109546A1, “Treatment of psychotic disorders comprising co-therapy with anticonvulsant derivatives and atypical antipsychotics” (priority 2001, published 2003).

Key:
[1] = system: schizophrenia; assay: Example 3 case study: augmentation of clozapine treatment; assay type: in vivo, human
Source text: The patient was a morbidly obese person, who was first hospitalized in 1966 for psychotic symptoms, leading to a psychiatric diagnosis of schizophrenia. Their primary symptoms consisted of a set of strange and elaborate ideas about transmitting their thoughts to others, thoughts that they had invented “invisible steel” which was being used by the CIA and aliens, and a high degree of suspiciousness about the discriminatory intent of their clergyman and the local police. They denied any overt hallucinations, although they acknowledged “weird noises” associated with aliens attempting to contact them. At initial hospitalization, the patient was also profoundly confused and disorganized in their thought processes. Over the next two decades they were hospitalized four more times with essentially this same clinical picture, eventually being admitted in 1989 to a state hospital for long-term treatment where they remain to this day.
During their five hospitalizations the patient was treated with a variety of anti-psychotic medications, often in various combinations and dosages. In 1994 they were characterized as being treatment refractory according to the Kane criteria and enrolled in an NIMH sponsored study of three different doses of clozapine. As a participant in this study the patient received 100, 300, 600 mg, each for a 3-month period.
The patient was nonetheless continued on a 100 mg dose of clozapine, with the intent of using a variety of different augmentation strategies to possibly improve their clinical state. […] Throughout this period, the patient's strange and bizarre ideas persisted. They remained emotionally withdrawn, and required regular PRN medication to reduce their agitation on the ward.
Toward the end of the year 2000, the patient was treated with a drug regimen of 100 mg of clozapine, 2 mg of risperidone, and 750 mg of valproic acid. At this time, the patient agreed to augment their treatment with topiramate. The valproic acid was gradually withdrawn, and on Dec. 5, 2000 the patient was started on 50 mg of topiramate. The topiramate was increased at a rate of 50 mg per week up to a daily dosage of 200 mg where they remained for over four months. Within the first 2-3 weeks of topiramate treatment several important clinical changes were observed. […] Rather than being very certain about their ability to transmit thought to others they now are not sure that this is possible. They were also no longer certain that they actually invented “invisible steel”, but instead mostly only believed that they once thought it, although occasionally the delusional belief breaks though into their thinking. […] Second, as a result of treatment with topiramate the patient's agitation was decreased and PRN medication for agitation was no longer required.

[2] = system: simple and complex partial seizures and secondarily generalized seizures; settings: adjunctive therapy or monotherapy; cited from earlier work
[3] = system: schizophrenia; assay: Example 2 open label pilot study on topiramate as adjunctive therapy in schizophrenia; assay type: in vivo, human; settings: Patient 1
Protocol: Results from Open Label Pilot Study on Topiramate as Adjunctive Therapy in the Treatment of Schizophrenia
The patient was a person who met DSM-IV diagnostic criteria for chronic undifferentiated schizophrenia. […] The patient had been maintained on a stable regimen of 20 mg olanzapine prior to initiation of the study. […] Although the patient lived in a group home with other residents, they preferred to spend most of their free time alone, watching television or staying in their room, and went to bed between 7 and 8 o'clock each night. The patient had limited social interactions in the partial hospitalization program, initiating contact with only a few friends. The patient was intrusive during groups and was unable to empathize with others within the group.
The patient was begun on topiramate at an initial dose of 25 mg/day, titrating to an optimal dosage level of 175 mg/day, which was given in two divided doses during an eight week maintenance medication phase of a clinical trial.
They also became less stereotyped in their speech, with very infrequent references to their previous recurrent theme of golf. After 12 weeks of adjunctive therapy with topiramate, the patient also appeared more realistic about their golfing skills, stating than they were an “average” golfer, as opposed to their previous assertions about winning several club tournaments.
The patient also resumed going to bed around 6:30 or 7:00 pm each night.

[4] = system: schizoaffective disorder; assay: Example 1 case study: topiramate added to olanzapine-containing regimen; assay type: in vivo, human
Source text: The patient was a single person, diagnosed with schizoaffective disorder, who presented with a variety of problems including disorganized behavior, suspiciousness, ideas of reference, stereotyped and obsessional thinking, lack of motivation, poor hygiene, poverty of speech, oppositional behavior and intermittent suicide attempts. The patient spent virtually the entire day in bed and was awake through the night. […] Despite continuous psychiatric and pharmacological treatment, the patient remained substantially disabled by withdrawal, apathy, poverty of speech, poor hygiene, anhedonia and suspiciousness. […] In addition, the patient was seen weekly in individual psychotherapy. There were no additional active medical problems. The patient was started on topiramate with dosages increased over a period of six weeks to 400 mg/day. […] In addition, the patient's residual positive symptoms, including primary suspiciousness and ideas of reference, were improved and the patient became less fearful of interacting with other. Patient's social functioning was improved, with the patient able to hold part-time employment. […] The patient maintained their part-time employment and engaged in productive social activity several times a week. […] (Lorazepam was removed with sustained improvement.)

[5] = system: seizures; settings: several rodent models of epilepsy; cited from earlier work
[6] = system: schizophrenia, undifferentiated type; assay: Example 4 case study: topiramate added to haloperidol and risperidone; assay type: in vivo, human
Source text: The patient was a person, who was first hospitalized in 1983 on an involuntary basis-due to their inability to care for themself. Upon admission, they were described as paranoid, suspicious, agitated, and delusional, and was given the diagnosis of schizophrenia, undifferentiated type. They expressed persecutory delusions saying that the Mafia was going to hurt them. They heard voices telling them that someone was going to rape their parent. After one year of hospitalization, they were discharged into the community, where they soon became unstable resulting in two suicide attempts by hanging and two more short-term hospitalizations. In 1988 the patient was admitted into a state hospital for long-term treatment where they remain to this day. Over the past decade or more, their clinical picture had remained unchanged. They had been treated with numerous anti-psychotic medications, including the newer a typical medicines with little or no benefit. Their high level of agitation and persecutory delusions often propelled them into confrontations with staff and other patients, and they were regularly treated with PRN medications or placed into seclusion for their behavior. […] The topiramate dosage was titrated at a rate of 50 mg per week up to a daily dosage of 150 mg, at which dose the patient remained for a period of 4 months. Within the first month of treatment with topiramate several important clinical changes began to emerge. […] Within 1-2 weeks, the patient was no longer in seclusion and the use of PRN medication for agitation became very rare. Second, the patient's expressions persecutory delusions or suspiciousness decreased, and they were able to join into group activities on the unit.

[7] = system: schizophrenia; assay: Example 2 open label pilot study on topiramate as adjunctive therapy in schizophrenia; assay type: in vivo, human
[8] = system: kindled epilepsy; settings: animal model of kindled epilepsy; cited from earlier work
[9] = topiramate 175 mg/day added to 20 mg olanzapine
[10] = topiramate 25 to 175 mg/day added to 20 mg olanzapine
[11] = topiramate up to 400 mg/day added to olanzapine-containing regimen
[12] = topiramate 50 to 200 mg daily added to 100 mg clozapine, 2 mg risperidone
[13] = period of treatment that included topiramate
[14] = topiramate 50 to 150 mg daily added to haloperidol and risperidone

CCCC(CCC)C(=O)O [Depakote, divalproex sodium]
benefit when added to clozapine treatment ([1]; up to 5000 mg added to clozapine, 1999): little benefit

CN1CCN(C2=Nc3cc(Cl)ccc3Nc3ccccc32)CC1 [clozapine, 8-chloro-11-(4-methyl-1-piperazinyl)-5H-dibenzo[b,e][1,4]diazepine]
adverse event ([1]; 900 mg of clozapine): led to a seizure
response to treatment ([1]; clozapine 100, 300, 600 mg, each for 3 months (NIMH study)): did not show any meaningful response

Cc1nc2n(c(=O)c1CCN1CCC(c3noc4cc(F)ccc34)CC1)CCCC2 [risperidone, 3-[2-[4-(6-fluoro-1,2-benzisoxazol-3-yl)piperidino]ethyl]-2-methyl-6,7,8,9-tetrahydro-4H-pyrido-[1,2-a]pyrimidin-4-one]
adverse event when added to clozapine treatment ([1]; standard dose added to 100 mg clozapine): severe tremors
effect when added to clozapine treatment ([1]; standard doses added to 100 mg clozapine): little effect
benefit of clozapine augmentation with low dose risperidone ([1]; study in 2000): lack of treatment benefit

CC1(C)O[C@@H]2[C@@H](CO[C@@]3(COS(N)(=O)=O)OC(C)(C)O[C@@H]23)O1 [topiramate, 2,3:4,5-bis-O-(1-methylethylidene)-β-D-fructopyranose sulfamate]
efficacy in treating simple and complex partial seizures and secondarily generalized seizures [2]: effective
change in the Positive or General Scales of the PANSS [3, 9]: did not show any consistent, significant change
decrease in the Negative Scale score (PANSS) from baseline [3, 9]: 7 points
tolerability [3, 10]: well tolerated
vital signs and laboratory values [3, 10]: remained within the normal range
Negative Scale score after discontinuation of topiramate ([3]; upon completion of the study protocol): increase in the Negative Scale score
maintenance of improvement ([4]; after 5 months, topiramate decreased to 300 mg/day): improvements maintained
maintenance of improvement ([4]; after 10 months, 300 mg topiramate, 7.5 mg olanzapine, 400 mg fluvoxamine, 1 mg lorazepam daily): improvement was still sustained
maintenance of improvement ([4]; after more than 2 years, 300 mg topiramate, 7.5 mg olanzapine, 400 mg fluvoxamine daily): remained improved
negative symptoms (eye contact, attention, concentration, poverty of speech, grooming, hygiene, withdrawal) ([4]; topiramate increased over six weeks to 400 mg/day, added to fluvoxamine, Depakote, lorazepam, olanzapine 10 mg, over 8 weeks): significant improvement
residual positive symptoms (suspiciousness, ideas of reference) [4, 11]: improved
social functioning [4, 11]: improved
clinical state (opinion of the treatment team) ([1]; addition of topiramate): clear and important degree of improvement
level of suspiciousness [1, 12]: decreased
thought organisation / conversation [1, 12]: able to engage in a logical conversation
agitation ([1]; topiramate 50 to 200 mg daily added to 100 mg clozapine, 2 mg risperidone, PRN medication no longer required): decreased
level of preoccupation with delusional thoughts ([1]; topiramate 50 to 200 mg daily added to 100 mg clozapine, 2 mg risperidone, within first 2-3 weeks): obviously reduced
seizure block [5]: effectively block seizures
intensity of positive symptoms (auditory hallucinations, delusions of persecution) [6, 13]: reduced in occurrence and severity
social withdrawal [6, 13]: less socially withdrawn
expressions of persecutory delusions or suspiciousness [6, 14]: decreased
negative symptoms [6, 14]: fewer negative symptoms
level of agitation ([6]; topiramate 50 to 150 mg daily added to haloperidol and risperidone, within first month): reduced dramatically
response with regards to negative symptoms ([7]; Patients 2 & 3, adjunctive topiramate): did not respond significantly
positive symptoms ([7]; Patients 2 & 3, over the course of the trial): decreases in positive symptoms
negative symptoms ([7]; one of Patients 2 & 3, fluctuated during drug maintenance period): limited decrease
side effect potentially attributable to topiramate ([7]; second of Patients 2 & 3, topiramate 100 mg/day): difficulties with verbal fluency and word finding
negative symptoms ([7]; second of Patients 2 & 3, topiramate 100 mg/day lowered to 75 mg/day, dropped from study): significant decrease
seizure block [8]: effectively block seizures
